Results on one molecule are retold here after EP2402012B1, “Liquid formulations of rupatadine fumarate” (J. Uriach y Compania S.A., priority 2010, dated 2012).

One may read the solubility as the concentration that dissolves in the medium under given conditions. High values mean a readily soluble substance, low ones a poorly soluble substance.

Structures are written as SMILES. Where a name gives a salt, the structure may show the parent alone.

Data set [1] is described as follows: Solubility of rupatadine fumarate in water and in buffer solutions at different pH. It is filed as physicochemical. The note with it: water; 25 g/L added, stirring 16 - 24 h, filtered; room temperature. Here is the method: The solubility of rupatadine fumarate was determined by adding 25 g/L of rupatadine fumarate to water and stirring during 16 - 24 h. The resulting solution was filtered and the amount of rupatadine determined using the Method 2. Using the same procedure, but using buffer solutions of known pH instead of water, the solubility of rupatadine fumarate at different pH was determined (the pH of the solution was measured prior to the addition of rupatadine fumarate).

Data set [2] is described as follows: Rate of formation of Compound II in aqueous solutions of rupatadine fumarate on storage (HPLC, Method 2). The conditions noted are these: aqueous solution 1 g(rupatadine fumarate)/L. Type of data set: physicochemical. The method, then:
The HPLC method used to determine the % Compound II present in a formulation is based on the European Pharmacopoeia 2.2.29 using the following conditions: • room temperature and atmospheric pressure • column: C1810 µm (3.9 mm x 30 cm) • eluent: Methanol - Phosphate buffer solution pH 4.2 (75:25) • eluent flow: 1.3 mL/min • detection: UV-Visible spectrophotometer at 265 nm • retention time of Rupatadine: aprox. 8.9 min • relative retention time of Compound II: aprox. 0.43 Reference standard solutions of rupatadine and Compound II (which can be prepared as described in Reference Example 3) are used in the identification of the components. The test sample is compared to the equivalent placebo (same formulation without rupatadine fumarate) to check overlapping peaks with other excipients in the formulation. The % Compound II is calculated as 100*(area of Compound II peak)/(area of rupatadine peak). Different aqueous solutions comprising rupatadine fumarate at a concentration of 1 g(rupatadine fumarate)/L at different pH (3.41, 4.38 and 5.00), obtained adding the required amount of solutions of HCl(aq) or NaOH(aq) to solutions containing only water and rupatadine fumarate, were stored at different temperature conditions (room temperature and 40°C/75%HR) during two months and analyzed at the beginning, at one month and at the end of the period using Method 2, see table below.

Consider `Cc1cncc(CN2CCC(=C3c4ccc(Cl)cc4CCc4cccnc43)CC2)c1` [rupatadine fumarate], for which the solubility in data set [1] amounted to 2900 µg/mL. Moreover, the “% Compound II 1 month” value amounted to 0.174% in data set [2] (pH 3.41, 25 ± 2°C); 0.737% in data set [2] (pH 3.41, 40 ± 2°C); 0.090% in data set [2] (pH 4.38, 25 ± 2°C); 0.357% in data set [2] (pH 4.38, 40 ± 2°C); 0.039% in data set [2] (pH 5.00, 25 ± 2°C); 0.112% in data set [2] (pH 5.00, 40 ± 2°C). Further, the “% Compound II 2 months” value in data set [2] (pH 3.41, 25 ± 2°C) was 0.276%; in data set [2] (pH 3.41, 40 ± 2°C) it was 1.396%; in data set [2] (pH 4.38, 25 ± 2°C) it was 0.142%; in data set [2] (pH 4.38, 40 ± 2°C), 0.646%; in data set [2] (pH 5.00, 25 ± 2°C), 0.051%; in data set [2] (pH 5.00, 40 ± 2°C) it was 0.182%. Further, the figures for the “% Compound II initial” value in data set [2] (pH 3.41), in data set [2] (pH 4.38) and in data set [2] (pH 5.00) were 0.035%, 0.036% and 0.040%, respectively.
